The record followed here is patent publication US20090131468A1, “Bis-(Sulfonylamino) Derivatives in Therapy 065” (AstraZeneca AB, priority 2007, published 2009).

The target in the experiment is T1, human mPGES-1 (Homo sapiens, UniProt O14684).
T1 sequence (O14684 1-152): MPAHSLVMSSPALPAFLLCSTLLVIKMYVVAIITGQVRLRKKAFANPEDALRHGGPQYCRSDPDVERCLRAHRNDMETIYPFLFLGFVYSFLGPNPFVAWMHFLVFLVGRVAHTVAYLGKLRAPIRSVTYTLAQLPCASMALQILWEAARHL
Put plainly: Microsomal prostaglandin E synthase biochemical assay. As to conditions: microsome preparation containing human mPGES-1; PGH2 10.8 μM, GSH 2.5 mM, pH 6.8; PGE2 quantified by HTRF; average of at least n=2. The protocol:
Compounds were tested as inhibitors of microsomal prostaglandin E synthase activity in microsomal prostaglandin E synthase assays and whole cell assays. These assays measure prostaglandin E2 (PGE2) synthesis which is taken as a measure of prostaglandin E synthase activity. Microsomal prostaglandin E synthase biochemical assays used microsomal prostaglandin E synthase-1 in microsomal preparations. The source of the microsomes can be for example interleukin-1β-stimulated human A549 cells (which express human mPGES-1) or Sf9 cells transfected with plasmids encoding human mPGES-1 cDNA.
A solution of test compound was added to a diluted microsome preparation containing human mPGES-1 and pre-incubated for 15 minutes in potassium phosphate buffer pH 6.8 with cofactor glutathione (GSH). Corresponding solutions without test compound were used as positive controls, and corresponding solutions without test compound and without microsomes were used as negative controls. The enzymatic reaction was then started by addition of the substrate PGH2 in an organic solution (dry acetonitrile).
The reaction was stopped after one minute by adding an acidic solution (pH 1.9) of ferric chloride and citrate (final concentrations 7 mM and 47 mM respectively), by which the PGH2 was sequestered (the PGH2 is reduced to mainly 12-hydroxy heptadecatrineoic acid (12-HHT) which is not detected by the subsequent PGE2 detection step). The resulting solution was then pH neutralized by addition of potassium phosphate buffer, prior to diluting an aliquot of the resulting solution in a weak potassium phosphate buffer (50 mM, pH 6.8) containing 0.2% BSA (w/v). […] The PGE2 formed was quantified by use of a commercial HTRF based kit (catalogue #62PG2PEC or #62P2APEC from Cisbio International). 100% activity was defined as the PGE2 production in positive controls subtracted by the PGE2 production in the negative controls. IC50 values were then determined using standard procedures.
(In general: In TR-FRET formats the signal depends on donor and acceptor labels being close together.)

For orientation: IC50 means the concentration needed to halve the response being measured. Turning to `NS(=O)(=O)c1ccccc1S(=O)(=O)NC(=O)C1(c2ccccc2)CCCCC1` [Example 18, 1-Phenyl-N-(2-sulfamoylphenyl)sulfonyl-cyclohexane-1-carboxamide], the IC50 is 100 nM. Take `NS(=O)(=O)c1ccccc1S(=O)(=O)NC(=O)c1cccc(OC(F)F)c1` [Example 19, 3-(Difluoromethoxy)-N-(2-sulfamoylphenyl)sulfonyl-benzamide]: the IC50 worked out at 8700 nM. The figure for `NS(=O)(=O)c1ccccc1S(=O)(=O)NC(=O)c1ccc(F)c(Br)c1` [Example 20, 3-Bromo-4-fluoro-N-(2-sulfamoylphenyl)sulfonyl-benzamide] is 590 nM. As to `NS(=O)(=O)c1ccccc1S(=O)(=O)NC(=O)c1cccc(COCC(F)(F)C(F)F)c1` [Example 21, N-(2-Sulfamoylphenyl)sulfonyl-3-(2,2,3,3-tetrafluoropropoxymethyl)benzamide], the half-maximal inhibitory concentration (IC50) is 2200 nM.

Take `Cc1nc(-c2cccc(C(F)(F)F)c2)sc1C(=O)NS(=O)(=O)c1ccccc1S(N)(=O)=O` [Example 22, 4-Methyl-N-(2-sulfamoylphenyl)sulfonyl-2-[3-(trifluoromethyl)phenyl]1,3-thiazole-5-carboxamide]: inhibition was half-maximal at 30 nM (IC50). This IC50 is about 73-fold lower than that of the molecule before. Molecule `NS(=O)(=O)c1ccccc1S(=O)(=O)NC(=O)c1ccc(Cl)cc1F` [Example 23, 4-Chloro-2-fluoro-N-(2-sulfamoylphenyl)sulfonyl-benzamide] yielded an IC50 of 1000 nM. The molecule `NS(=O)(=O)c1ccccc1S(=O)(=O)NC(=O)c1ccc(Cl)cc1Cc1ccccc1` [Example 24, 2-Benzyl-4-chloro-N-(2-sulfamoylphenyl)sulfonyl-benzamide] had an IC50 of 5400 nM.

Consider `NS(=O)(=O)c1ccccc1S(=O)(=O)NC(=O)c1ccc2oc(-c3ccccc3)cc2c1` [Example 25, 2-Phenyl-N-(2-sulfamoylphenyl)sulfonyl-benzofuran-5-carboxamide], for which the IC50 turned out to be 20 nM. This IC50 lies about 270-fold lower than the previous one. In turn, `Cc1nc(-c2ccc(C(F)(F)F)cc2)sc1C(=O)NS(=O)(=O)c1ccccc1S(N)(=O)=O` [Example 26, 4-Methyl-N-(2-sulfamoylphenyl)sulfonyl-2-[4-(trifluoromethyl)phenyl]1,3-thiazole-5-carboxamide] yielded an IC50 of 120 nM. This IC50 lies about 6-fold higher than the previous one. With `Cc1nc(-c2ccc(Cl)cc2)sc1C(=O)NS(=O)(=O)c1ccccc1S(N)(=O)=O` [Example 28, 2-(4-Chlorophenyl)-4-methyl-N-(2-sulfamoylphenyl)sulfonyl-1,3-thiazole-5-carboxamide], inhibition was half-maximal at 44 nM (IC50). This IC50 is about 2.7-fold lower than that of the molecule before.

As for `Cc1nc(-c2ccccc2)sc1C(=O)NS(=O)(=O)c1ccccc1S(N)(=O)=O` [Example 29, 4-Methyl-2-phenyl-N-(2-sulfamoylphenyl)sulfonyl-1,3-thiazole-5-carboxamide], the concentration for half-maximal inhibition (IC50) came to 290 nM. `NS(=O)(=O)c1ccccc1S(=O)(=O)NC(=O)c1ccc(OCc2ccccc2)cc1` [Example 30, 4-Phenylmethoxy-N-(2-sulfamoylphenyl)sulfonyl-benzamide] returned an IC50 of 160 nM. Against the preceding molecule, the IC50 is about 1.8-fold lower. As for `NS(=O)(=O)c1ccccc1S(=O)(=O)NC(=O)c1ccc(-c2ccccc2)cc1` [Example 31, 4-Phenyl-N-(2-sulfamoylphenyl)sulfonyl-benzamide], 320 nM corresponded to half-maximal inhibition (IC50). This IC50 is about 2-fold higher than that of the molecule before. Regarding `CC(C)(C)c1ccc(C(=O)NS(=O)(=O)c2ccccc2S(N)(=O)=O)cc1` [Example 32, N-(2-Sulfamoylphenyl)sulfonyl-4-tert-butyl-benzamide], the IC50 was 1500 nM. Molecule `Cn1c(C(=O)NS(=O)(=O)c2ccccc2S(N)(=O)=O)cc2ccccc21` [Example 33, 1-Methyl-N-(2-sulfamoylphenyl)sulfonyl-indole-2-carboxamide] returned an IC50 of 4600 nM. Compared with the last molecule, the IC50 is about 3.1-fold higher. `NS(=O)(=O)c1ccccc1S(=O)(=O)NC(=O)c1ccc(-c2ccccn2)s1` [Example 34, 5-Pyridin-2-yl-N-(2-sulfamoylphenyl)sulfonyl-thiophene-2-carboxamide]: 1600 nM corresponded to half-maximal inhibition (IC50). Turning to `NS(=O)(=O)c1ccccc1S(=O)(=O)NC(=O)c1ccc(-c2ccccc2)s1` [Example 35, 5-Phenyl-N-(2-sulfamoylphenyl)sulfonyl-thiophene-2-carboxamide], the IC50 is 530 nM.

Molecule `NS(=O)(=O)c1ccccc1S(=O)(=O)NC(=O)c1ccc(-c2ccc(Cl)c(Cl)c2)o1` [Example 36, 5-(3,4-Dichlorophenyl)-N-(2-sulfamoylphenyl)sulfonyl-furan-2-carboxamide] returned an IC50 of 280 nM. The molecule `NS(=O)(=O)c1ccccc1S(=O)(=O)NC(=O)c1ccc(-c2cccc(C(F)(F)F)c2)o1` [Example 37, N-(2-Sulfamoylphenyl)sulfonyl-5-[3-(trifluoromethyl)phenyl]furan-2-carboxamide] had an IC50 of 1100 nM. `CCCc1c(C(=O)NS(=O)(=O)c2ccccc2S(N)(=O)=O)cnn1-c1cc(Cl)cc(Cl)c1` [Example 38, 1-(3,5-Dichlorophenyl)-5-propyl-N-(2-sulfamoylphenyl)sulfonyl-pyrazole-4-carboxamide] showed a 50% inhibitory concentration (IC50) of 1500 nM.

Molecule `NS(=O)(=O)c1ccccc1S(=O)(=O)NC(=O)c1sc2cc(Cl)ccc2c1Cl` [Example 39, 3,6-Dichloro-N-(2-sulfamoylphenyl)sulfonyl-benzothiophene-2-carboxamide] yielded an IC50 of 82 nM. Take `NS(=O)(=O)c1ccccc1S(=O)(=O)NC(=O)c1csc2ccccc12` [Example 40, N-(2-Sulfamoylphenyl)sulfonylbenzothiophene-3-carboxamide]: 2200 nM corresponded to half-maximal inhibition (IC50). Compared with the last molecule, the IC50 is about 27-fold higher. The figure for `CCOC(=O)c1ccc(-c2ccc(C(=O)NS(=O)(=O)c3ccccc3S(N)(=O)=O)o2)cc1` [Example 41, Ethyl 4-[5-[(2-Sulfamoylphenyl)sulfonylcarbamoyl]-2-furyl]benzoate] is 5400 nM; for `Cc1nc(-c2cccc(Cl)c2)sc1C(=O)NS(=O)(=O)c1ccccc1S(N)(=O)=O` [Example 42, 2-(3-Chlorophenyl)-4-methyl-N-(2-sulfamoylphenyl)sulfonyl-1,3-thiazole-5-carboxamide] it is 110 nM.

`CC(C)(C)C#Cc1ccc(C(=O)NS(=O)(=O)c2ccccc2S(N)(=O)=O)cc1` [Example 43, 4-(3,3-Dimethylbut-1-ynyl)-N-(2-sulfamoylphenylsulfonyl)benzamide] registered a 50% inhibitory concentration (IC50) of 28 nM.

In turn, `CC(C)(O)C#Cc1ccc(C(=O)NS(=O)(=O)c2ccccc2S(N)(=O)=O)cc1` [Example 44, 4-(3-Hydroxy-3-methylbut-1-ynyl)-N-(2-sulfamoylphenylsulfonyl)benzamide] registered an IC50 of 240 nM.

As for `Cc1cc(C(=O)NS(=O)(=O)c2ccccc2S(N)(=O)=O)ccc1-c1cc2ccccc2o1` [Example 45, 4-(Benzofuran-2-yl)-3-methyl-N-(2-sulfamoylphenylsulfonyl)benzamide], the IC50 came to 5.5 nM. This IC50 is about 44-fold lower than that of the molecule before.

`Cc1cc(-c2cc3ccccc3o2)ccc1C(=O)NS(=O)(=O)c1ccccc1S(N)(=O)=O` [Example 46, 4-(Benzofuran-2-yl)-2-methyl-N-(2-sulfamoylphenylsulfonyl)benzamide] showed an IC50 of 46 nM. Compared with the last molecule, the IC50 is about 8.4-fold higher.

As for `COc1cc(C(=O)NS(=O)(=O)c2ccccc2S(N)(=O)=O)cc(OC)c1-c1cc2ccccc2o1` [Example 47, 4-(Benzofuran-2-yl)-3,5-dimethoxy-N-(2-sulfamoylphenylsulfonyl)benzamide], the IC50 was 140 nM. The figure for `COc1cc(-c2cc3ccccc3o2)ccc1C(=O)NS(=O)(=O)c1ccccc1S(N)(=O)=O` [Example 48, 4-(Benzofuran-2-yl)-2-methoxy-N-(2-sulfamoylphenylsulfonyl)benzamide] is 150 nM. Molecule `NS(=O)(=O)c1ccccc1S(=O)(=O)NC(=O)c1ccc(-c2cc3ccccc3o2)cc1O` [Example 49, 4-(Benzofuran-2-yl)-2-hydroxy-N-(2-sulfamoylphenylsulfonyl)benzamide] came in with an IC50 of 8.1 nM. Against the preceding molecule, the IC50 is about 19-fold lower. Molecule `NS(=O)(=O)c1ccccc1S(=O)(=O)NC(=O)c1ccc(Br)cc1O` [Example 49a, 4-Bromo-2-hydroxy-N-(2-sulfamoylphenylsulfonyl)benzamide] displayed an IC50 of 540 nM.

The molecule `COc1cc(C(=O)NS(=O)(=O)c2ccccc2S(N)(=O)=O)ccc1-c1cc2ccccc2o1` [Example 50, 4-(Benzofuran-2-yl)-3-methoxy-N-(2-sulfamoylphenylsulfonyl)benzamide] registered an IC50 of 3.2 nM. This IC50 is about 170-fold lower than that of the molecule before.

As to `NS(=O)(=O)c1ccccc1S(=O)(=O)NC(=O)c1ccc(-c2cc3ccccc3o2)c(O)c1` [Example 51, 4-(Benzofuran-2-yl)-3-hydroxy-N-(2-sulfamoylphenylsulfonyl)benzamide], half-maximal inhibition (IC50) required 3.4 nM. This IC50 and that of the molecule before are within 1.5-fold of each other. With `Cc1cc(-c2cc3ccccc3o2)cc(C)c1C(=O)NS(=O)(=O)c1ccccc1S(N)(=O)=O` [Example 52, 4-(Benzofuran-2-yl)-2,6-dimethyl-N-(2-sulfamoylphenylsulfonyl)benzamide], the half-inhibitory concentration (IC50) was determined as 450 nM.
